pEC50: −log10 of the molar value.
biological target: T1, GFRα1-RET (Homo sapiens, UniProt P56159); assay: Elk1 reporter-gene (luciferase) assay in cells expressing GFRα1-RET; format: cell-based; conditions: MG87 murine fibroblasts stably transfected with PathDetect Elk-1, GFRα1 and RET, 6 concentrations, agonist/activator activity
T1 construct: expressed in transfected cells; host or cells: MG87 murine fibroblasts, stably transfected
T1 sequence (P56159 25-429 limits assumed): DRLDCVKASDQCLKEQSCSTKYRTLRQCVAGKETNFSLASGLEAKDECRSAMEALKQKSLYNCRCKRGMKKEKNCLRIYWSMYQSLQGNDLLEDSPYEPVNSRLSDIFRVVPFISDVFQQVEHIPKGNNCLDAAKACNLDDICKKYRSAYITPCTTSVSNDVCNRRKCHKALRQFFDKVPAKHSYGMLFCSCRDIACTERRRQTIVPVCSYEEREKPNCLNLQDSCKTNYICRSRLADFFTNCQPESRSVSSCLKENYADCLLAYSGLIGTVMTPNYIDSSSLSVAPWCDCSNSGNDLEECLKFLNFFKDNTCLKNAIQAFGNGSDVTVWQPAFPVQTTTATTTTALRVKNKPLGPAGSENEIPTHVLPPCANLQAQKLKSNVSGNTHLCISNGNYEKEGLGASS
Procedure: For ECso determination, a dose-response test was performed using 6 concentrations of each tested compound. Dose-response curves were fitted using the sigmoidal dose-response (variable slope) analysis in GraphPad Prism program (Graph Pad Inc) and ECso of agonist/activator activity was calculated. Dose-response experiments were all performed in duplicate, two times independently.

Compound | pEC50
COc1ccc(S(=O)(=O)N2CCC(c3cccc(-n4cccn4)c3)CC2)cc1N1[C@@H]2CC[C@H]1CN(C(=O)c1ccc(F)cc1Cl)C2 [compound 043, (2-chloro-4-fluoro-phenyl)-[(1S,5R)-8-[2-methoxy-5-[[4-(3-pyrazol-1-ylphenyl)-1-piperidyl]sulfonyl]phenyl]-3,8-diazabicyclo[3.2.1]octan-3-yl]methanone] | > 6.00
COc1ccc(S(=O)(=O)N2CCN(CCc3ccc(F)cc3)CC2)cc1N1[C@@H]2CC[C@H]1CN(C(=O)c1ccc(F)cc1Cl)C2 [compound 046, (2-chloro-4-fluoro-phenyl)-[(1S,5R)-8-[5-[4-[2-(4-fluorophenyl)ethyl]piperazin-1-yl]sulfonyl-2-methoxy-phenyl]-3,8-diazabicyclo[3.2.1]octan-3-yl]methanone] | > 6.00
COc1ccc(S(=O)(=O)N2CCN(CCc3ccc(Cl)cc3)CC2)cc1N1[C@@H]2CC[C@H]1CN(C(=O)c1ccc(F)cc1Cl)C2 [compound 048, (2-chloro-4-fluoro-phenyl)-[(1S,5R)-8-[5-[4-[2-(4-chlorophenyl)ethyl]piperazin-1-yl]sulfonyl-2-methoxy-phenyl]-3,8-diazabicyclo[3.2.1]octan-3-yl]methanone] | > 6.00
COc1ccc(S(=O)(=O)N2CCC(c3ccccc3)CC2)cc1N1[C@@H]2CC[C@H]1CN(C(=O)c1cc(F)c(F)cc1Cl)C2 [compound 049, (2-chloro-4,5-difluoro-phenyl)-[(1S,5R)-8-[2-methoxy-5-[(4-phenyl-1-piperidyl)sulfonyl]phenyl]-3,8-diazabicyclo[3.2.1]octan-3-yl]methanone] | > 6.00
COc1ccc(S(=O)(=O)N2CCC(CCc3ccccc3)CC2)cc1N1[C@@H]2CC[C@H]1CN(C(=O)c1cc(F)c(F)cc1Cl)C2 [compound 050, (2-chloro-4,5-difluoro-phenyl)-[(1S,5R)-8-[2-methoxy-5-[[4-(2-phenylethyl)-1-piperidyl]sulfonyl]phenyl]-3,8-diazabicyclo[3.2.1]octan-3-yl]methanone] | > 6.00
COc1ccc(S(=O)(=O)N2CCN(c3ccccc3)CC2)cc1N1[C@@H]2CC[C@H]1CN(C(=O)c1cc(F)c(F)cc1Cl)C2 [compound 051] | > 6.00
COc1ccc(S(=O)(=O)N2CCC(=Cc3ccccc3)CC2)cc1N1[C@@H]2CC[C@H]1CN(C(=O)c1cc(F)c(F)cc1Cl)C2 [compound 053, [(1S,5R)-8-[5-[(4-benzylidene-1-piperidyl)sulfonyl]-2-methoxy-phenyl]-3,8-diazabicyclo[3.2.1]octan-3-yl]-(2-chloro-4,5-difluoro-phenyl)methanone] | > 6.00
COc1ccc(S(=O)(=O)N(C)C(C)(C)C)cc1N1[C@@H]2CC[C@H]1CN(C(=O)c1cc(F)c(F)cc1Cl)C2 [compound 054, N-tert-butyl-3-[(1S,5R)-3-(2-chloro-4,5-difluoro-benzoyl)-3,8-diazabicyclo[3.2.1]octan-8-yl]-4-methoxy-N-methyl-benzenesulfonamide] | 5.00 to 6.00
O=C(c1ccc(F)cc1Cl)N1C[C@H]2CC[C@@H](C1)N2c1cc(S(=O)(=O)N2CCC(c3ccccc3)CC2)cc2c1OCC2 [compound 055, (2-chloro-4-fluoro-phenyl)-[(1S,5R)-8-[5-[(4-phenyl-1-piperidyl)sulfonyl]-2,3-dihydrobenzofuran-7-yl]-3,8-diazabicyclo[3.2.1]octan-3-yl]methanone] | > 6.00
O=C(c1ccc(F)cc1Cl)N1C[C@H]2CC[C@@H](C1)N2c1cc(S(=O)(=O)N2CCC(c3ccc(F)cc3)CC2)cc2c1OCC2 [compound 056, (2-chloro-4-fluoro-phenyl)-[(1S,5R)-8-[5-[[4-(4-fluorophenyl)-1-piperidyl]sulfonyl]-2,3-dihydrobenzofuran-7-yl]-3,8-diazabicyclo[3.2.1]octan-3-yl]methanone] | > 6.00
CC(C)(C)NS(=O)(=O)c1cc2c(c(N3[C@@H]4CC[C@H]3CN(C(=O)c3ccc(F)cc3Cl)C4)c1)OCC2 [compound 057, N-tert-butyl-7-[(1S,5R)-3-(2-chloro-4-fluoro-benzoyl)-3,8-diazabicyclo[3.2.1]octan-8-yl]-2,3-dihydrobenzofuran-5-sulfonamide] | > 6.00
CN(CC1CC1)S(=O)(=O)c1cc2c(c(N3[C@@H]4CC[C@H]3CN(C(=O)c3ccc(F)cc3Cl)C4)c1)OCC2 [compound 058, 7-[(1S,5R)-3-(2-chloro-4-fluoro-benzoyl)-3,8-diazabicyclo[3.2.1]octan-8-yl]-N-(cyclopropylmethyl)-N-methyl-2,3-dihydrobenzofuran-5-sulfonamide] | 5.00 to 6.00
O=C(c1ccc(F)cc1Cl)N1C[C@H]2CC[C@@H](C1)N2c1cc(S(=O)(=O)N2CCN(CCc3ccc(F)cc3)CC2)cc2c1OCC2 [compound 059, (2-chloro-4-fluoro-phenyl)-[(1S,5R)-8-[5-[4-[2-(4-fluorophenyl)ethyl]piperazin-1-yl]sulfonyl-2,3-dihydrobenzofuran-7-yl]-3,8-diazabicyclo[3.2.1]octan-3-yl]methanone] | > 6.00
O=C(c1ccc(F)cc1Cl)N1C[C@H]2CC[C@@H](C1)N2c1cc(S(=O)(=O)N2CCN(CCc3ccc(Cl)cc3)CC2)cc2c1OCC2 [compound 060, (2-chloro-4-fluoro-phenyl)-[(1S,5R)-8-[5-[4-[2-(4-chlorophenyl)ethyl]piperazin-1-yl]sulfonyl-2,3-dihydrobenzofuran-7-yl]-3,8-diazabicyclo[3.2.1]octan-3-yl]methanone] | > 6.00
O=C(c1cc(F)c(F)cc1Cl)N1C[C@H]2CC[C@@H](C1)N2c1cc(S(=O)(=O)N2CCC(c3ccccc3)CC2)cc2c1OCC2 [compound 061, (2-chloro-4,5-difluoro-phenyl)-[(1S,5R)-8-[5-[(4-phenyl-1-piperidyl)sulfonyl]-2,3-dihydrobenzofuran-7-yl]-3,8-diazabicyclo[3.2.1]octan-3-yl]methanone] | > 6.00
O=C(c1ccc(F)cc1Cl)N1C[C@H]2CC[C@@H](C1)N2c1cc(S(=O)(=O)N2CCC(CCc3ccccc3)CC2)ccc1O [compound 062] | > 6.00
O=C(c1ccc(F)cc1Cl)N1C[C@H]2CC[C@@H](C1)N2c1cc(S(=O)(=O)N2CCC(c3ccccc3)CC2)ccc1O [compound 063, (2-chloro-4-fluoro-phenyl)-[(1S,5R)-8-[2-hydroxy-5-[(4-phenyl-1-piperidyl)sulfonyl]phenyl]-3,8-diazabicyclo[3.2.1]octan-3-yl]methanone] | > 6.00
O=C(c1ccc(F)cc1Cl)N1C[C@H]2CC[C@@H](C1)N2c1cc(S(=O)(=O)N2CCN(CCc3ccc(Cl)cc3)CC2)ccc1O [compound 064, (2-chloro-4-fluoro-phenyl)-[(1S,5R)-8-[5-[4-[2-(4-chlorophenyl)ethyl]piperazin-1-yl]sulfonyl-2-hydroxy-phenyl]-3,8-diazabicyclo[3.2.1]octan-3-yl]methanone] | > 6.00
O=C(c1ccc(F)cc1Cl)N1C[C@H]2CC[C@@H](C1)N2c1cc(S(=O)(=O)N2CCC(c3ccc(F)cc3)CC2)ccc1O [compound 065, (2-chloro-4-fluoro-phenyl)-[(1S,5R)-8-[5-[[4-(4-fluorophenyl)-1-piperidyl]sulfonyl]-2-hydroxy-phenyl]-3,8-diazabicyclo[3.2.1]octan-3-yl]methanone] | > 6.00
O=C(c1ccc(F)cc1Cl)N1C[C@H]2CC[C@@H](C1)N2c1cc(S(=O)(=O)N2CCC(c3ccccc3)CC2)ccc1Cl [compound 066, (2-chloro-4-fluoro-phenyl)-[(1S,5R)-8-[2-chloro-5-[(4-phenyl-1-piperidyl)sulfonyl]phenyl]-3,8-diazabicyclo[3.2.1]octan-3-yl]methanone] | > 6.00
Cc1ccc(S(=O)(=O)N2CCC(c3ccccc3)CC2)cc1N1[C@@H]2CC[C@H]1CN(C(=O)c1ccc(F)cc1Cl)C2 [compound 067, (2-chloro-4-fluoro-phenyl)-[(1S,5R)-8-[2-methyl-5-[(4-phenyl-1-piperidyl)sulfonyl]phenyl]-3,8-diazabicyclo[3.2.1]octan-3-yl]methanone] | > 6.00
CCCN(C)S(=O)(=O)c1ccc(C)c(N2[C@@H]3CC[C@H]2CN(C(=O)c2ccc(F)cc2Cl)C3)c1 [compound 068, 3-[(1S,5R)-3-(2-chloro-4-fluoro-benzoyl)-3,8-diazabicyclo[3.2.1]octan-8-yl]-N,4-dimethyl-N-propyl-benzenesulfonamide] | > 6.00
COC(=O)c1ccc(S(=O)(=O)N2CCC(c3ccccc3)CC2)cc1N1[C@@H]2CC[C@H]1CN(C(=O)c1ccc(F)cc1Cl)C2 [compound 069, methyl 2-[(1S,5R)-3-(2-chloro-4-fluoro-benzoyl)-3,8-diazabicyclo[3.2.1]octan-8-yl]-4-[(4-phenyl-1-piperidyl)sulfonyl]benzoate] | > 6.00
O=C(c1ccc(F)cc1Cl)N1C[C@H]2CC[C@@H](C1)N2c1cc(S(=O)(=O)N2CCC(c3ccccc3)CC2)ccc1CO [compound 070, (2-chloro-4-fluoro-phenyl)-[(1S,5R)-8-[2-(hydroxymethyl)-5-[(4-phenyl-1-piperidyl)sulfonyl]phenyl]-3,8-diazabicyclo[3.2.1]octan-3-yl]methanone] | > 6.00
O=C(O)c1ccc(S(=O)(=O)N2CCC(c3ccccc3)CC2)cc1N1[C@@H]2CC[C@H]1CN(C(=O)c1ccc(F)cc1Cl)C2 [compound 071, 2-[(1S,5R)-3-(2-chloro-4-fluoro-benzoyl)-3,8-diazabicyclo[3.2.1]octan-8-yl]-4-[(4-phenyl-1-piperidyl)sulfonyl]benzoic acid] | > 6.00
